“And” between values parts separate entries of the source, which are not always exact repeats. Equal entries are not always repeated. Inconclusive results and toxic doses are left out. Cut-off read from the data, not from the text of the source: active = T/C of 150% or more; inactive = T/C below 125%.
System: L1210 leukemia ip in BDF1 mice, survival T/C
Experiment: NCI In Vivo Anticancer Drug Screen. Data for tumor model L1210 Leukemia (intraperitoneal) in B6D2F1 (BDF1) mice
Details: endpoint: mean survival time, higher = longer survival
Summary of the method: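 Transplantable tumor model; survival measured in treated vs vehicle control mice. Value = treated/control.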

[1] = dose: 50.0 mg/kg/injection, schedule: Q01DX001 (ip), vehicle: saline
[2] = dose: 100.0 mg/kg/injection, schedule: Q01DX001 (ip), vehicle: saline
[3] = dose: 100.0 mg/kg/injection, schedule: Q01DX009 (ip), vehicle: Klucel (hydroxypropylcellulose) (HPC)
[4] = dose: 100.0 mg/kg/injection, schedule: Q04DX003 (ip), vehicle: Klucel (hydroxypropylcellulose) (HPC)
[5] = dose: 200.0 mg/kg/injection, schedule: Q01DX009 (ip), vehicle: Klucel (hydroxypropylcellulose) (HPC)
[6] = dose: 200.0 mg/kg/injection, schedule: Q04DX003 (ip), vehicle: Klucel (hydroxypropylcellulose) (HPC)
[7] = dose: 400.0 mg/kg/injection, schedule: Q01DX009 (ip), vehicle: Klucel (hydroxypropylcellulose) (HPC)
[8] = dose: 400.0 mg/kg/injection, schedule: Q04DX003 (ip), vehicle: Klucel (hydroxypropylcellulose) (HPC)
[9] = dose: 100.0 mg/kg/injection, schedule: Q01DX001 (ip), vehicle: other
[10] = dose: 100.0 mg/kg/injection, schedule: Q04DX003 (ip), vehicle: other
[11] = dose: 200.0 mg/kg/injection, schedule: Q01DX001 (ip), vehicle: other
[12] = dose: 200.0 mg/kg/injection, schedule: Q04DX003 (ip), vehicle: other
[13] = dose: 5.0 mg/kg/injection, schedule: Q01DX001 (ip), vehicle: saline
[14] = dose: 10.0 mg/kg/injection, schedule: Q01DX001 (ip), vehicle: saline
[15] = dose: 200.0 mg/kg/injection, schedule: Q01DX001 (ip), vehicle: saline
[16] = dose: 12.5 mg/kg/injection, schedule: Q01DX009 (ip), vehicle: saline with Tween-80
[17] = dose: 25.0 mg/kg/injection, schedule: Q01DX009 (ip), vehicle: saline with Tween-80
[18] = dose: 50.0 mg/kg/injection, schedule: Q01DX009 (ip), vehicle: saline with Tween-80
[19] = dose: 100.0 mg/kg/injection, schedule: Q01DX009 (ip), vehicle: saline with Tween-80
[20] = dose: 100.0 mg/kg/injection, schedule: Q01DX001 (ip), vehicle: saline with Tween-80
[21] = dose: 25.0 mg/kg/injection, schedule: Q01DX001 (ip), vehicle: saline with Tween-80
[22] = dose: 20.0 mg/kg/injection, schedule: Q01DX001 (ip), vehicle: saline
[23] = dose: 100.0 mg/kg/injection, schedule: Q04DX003 (ip), vehicle: saline
[24] = dose: 200.0 mg/kg/injection, schedule: Q04DX003 (ip), vehicle: saline
[25] = dose: 400.0 mg/kg/injection, schedule: Q04DX003 (ip), vehicle: saline

Measured: T/C

[O-][n+]1ccccc1CCl
inactive: [1] 98 % of control | [2] 100 % of control

Cc1ccc(NC(=O)Nc2ccccc2Cl)cc1Cl
inactive: [3] 100 % of control | [4] 112 % of control | [5] 98 % of control | [6] 96 % of control | [7] 100 % of control | [8] 94 % of control

N#CCCSCCSCCC#N
inactive: [3] 95 % of control | [5] 97 % of control | [7] 101 % of control

CNC(=O)OCCOC(=O)NC
inactive: [9] 98 % of control | dose: 100.0 mg/kg/injection, schedule: Q01DX009 (ip), vehicle: other 96 % of control | [10] 102 % of control | [11] 109 % of control | dose: 200.0 mg/kg/injection, schedule: Q01DX009 (ip), vehicle: other 102 % of control | [12] 97 % of control | dose: 400.0 mg/kg/injection, schedule: Q01DX001 (ip), vehicle: other 98 % of control | dose: 400.0 mg/kg/injection, schedule: Q01DX009 (ip), vehicle: other 89 % of control | dose: 400.0 mg/kg/injection, schedule: Q04DX003 (ip), vehicle: other 111 % of control

Nc1ccc(Nc2ccc(N)cc2)cc1
inactive: [13] 101 % of control | [14] 113 % of control

O=C(Nc1cccc(S(=O)(=O)F)c1)c1ccc([N+](=O)[O-])cc1
inactive: [2] 107 % of control | [15] 103 % of control | dose: 400.0 mg/kg/injection, schedule: Q01DX001 (ip), vehicle: saline 90 % of control

CC12C=CC(C=C1)C(O)C2 (stereo not drawn)
inactive: [3] 101 % of control | [4] 97 % of control | [5] 114 % of control | [6] 96 % of control | [7] 90 % of control | [8] 94 % of control

CCOc1ccc(NC(=O)NCBr)cc1
inactive: [16] 106 % of control | [17] 95 % of control | [18] 87 % of control | [19] 87 % of control

CNC(=O)O/N=C(/SC)C(C)C
inactive: [13] 100 % of control | [14] 100 % of control

Nc1ccnc(SCc2ccccc2)n1
inactive: [20] 90 % of control | dose: 200.0 mg/kg/injection, schedule: Q01DX001 (ip), vehicle: saline with Tween-80 93 % of control | dose: 400.0 mg/kg/injection, schedule: Q01DX001 (ip), vehicle: saline with Tween-80 93 % of control

CCOC(Cl)CCl (stereo not drawn)
inactive: dose: 6.25 mg/kg/injection, schedule: Q01DX009 (ip), vehicle: saline with Tween-80 106 % of control | dose: 12.5 mg/kg/injection, schedule: Q01DX001 (ip), vehicle: saline with Tween-80 97 % of control | [16] 100 % of control | [21] 97 % of control | [17] 108 % of control | dose: 50.0 mg/kg/injection, schedule: Q01DX001 (ip), vehicle: saline with Tween-80 93 % of control and 105 % of control | [18] 101 % of control

O=C(Nc1cccc(Cl)c1)Nc1ccc(Cl)c(C(F)(F)F)c1
inactive: dose: 50.0 mg/kg/injection, schedule: Q01DX001 (ip), vehicle: carboxymethylcellulose (CMC) 94 % of control | dose: 100.0 mg/kg/injection, schedule: Q01DX001 (ip), vehicle: carboxymethylcellulose (CMC) 105 % of control | dose: 200.0 mg/kg/injection, schedule: Q01DX001 (ip), vehicle: carboxymethylcellulose (CMC) 100 % of control | dose: 400.0 mg/kg/injection, schedule: Q01DX001 (ip), vehicle: carboxymethylcellulose (CMC) 102 % of control

O=C(O)CCCC1CC(=O)c2c(c(O)c3ccccc3c2O)C1=O (stereo not drawn)
inactive: [18] 101 % of control | [19] 103 % of control | dose: 100.0 mg/kg/injection, schedule: Q04DX003 (ip), vehicle: saline with Tween-80 101 % of control | dose: 200.0 mg/kg/injection, schedule: Q01DX009 (ip), vehicle: saline with Tween-80 101 % of control | dose: 200.0 mg/kg/injection, schedule: Q04DX003 (ip), vehicle: saline with Tween-80 95 % of control | dose: 400.0 mg/kg/injection, schedule: Q04DX003 (ip), vehicle: saline with Tween-80 95 % of control

CN1C2CCC1C(O)C(c1ccccc1)C2 (stereo not drawn)
inactive: [14] 106 % of control | [22] 101 % of control | dose: 40.0 mg/kg/injection, schedule: Q01DX001 (ip), vehicle: saline 106 % of control

O=[N+]([O-])c1ccc(NN=C(CO)CO)c([N+](=O)[O-])c1
inactive: dose: 100.0 mg/kg/injection, schedule: Q01DX005 (ip), vehicle: saline 98 % of control | [23] 101 % of control | dose: 200.0 mg/kg/injection, schedule: Q01DX005 (ip), vehicle: saline 93 % of control | [24] 100 % of control | dose: 400.0 mg/kg/injection, schedule: Q01DX005 (ip), vehicle: saline 86 % of control | [25] 100 % of control

O=C([O-])C(=O)[O-].[Cu+2].[OH2+]CC[N-]CC[OH2+].[OH2+]CC[N-]CC[OH2+]
inactive: [13] 97 % of control | [14] 92 % of control | [22] 103 % of control

CC1CCOS(=O)O1 (stereo not drawn)
inactive: dose: 20.0 mg/kg/injection, schedule: Q01DX010 (ip), vehicle: saline 96 % of control and 98 % of control | dose: 24.0 mg/kg/injection, schedule: Q01DX Z (ip), vehicle: carboxymethylcellulose (CMC) 104 % of control and 92 % of control | dose: 36.0 mg/kg/injection, schedule: Q01DX Z (ip), vehicle: carboxymethylcellulose (CMC) 95 % of control and 109 % of control | dose: 40.0 mg/kg/injection, schedule: Q01DX010 (ip), vehicle: saline 95 % of control and 96 % of control | [1] 98 % of control | dose: 54.0 mg/kg/injection, schedule: Q01DX Z (ip), vehicle: carboxymethylcellulose (CMC) 101 % of control and 111 % of control | dose: 80.0 mg/kg/injection, schedule: Q01DX010 (ip), vehicle: saline 98 % of control and 104 % of control | dose: 81.0 mg/kg/injection, schedule: Q01DX Z (ip), vehicle: carboxymethylcellulose (CMC) 96 % of control and 104 % of control | [2] 98 % of control and 102 % of control | [15] 104 % of control

OC(c1ccc(Cl)cc1)(c1ccc(Cl)cc1)C(F)(F)F
inactive: dose: 100.0 mg/kg/injection, schedule: Q01DX009 (sc), vehicle: olive oil, sesame oil, peanut oil 113 % of control | dose: 100.0 mg/kg/injection, schedule: Q04DX003 (sc), vehicle: olive oil, sesame oil, peanut oil 100 % of control | dose: 200.0 mg/kg/injection, schedule: Q01DX009 (sc), vehicle: olive oil, sesame oil, peanut oil 101 % of control | dose: 200.0 mg/kg/injection, schedule: Q04DX003 (sc), vehicle: olive oil, sesame oil, peanut oil 97 % of control | dose: 400.0 mg/kg/injection, schedule: Q04DX003 (sc), vehicle: olive oil, sesame oil, peanut oil 113 % of control

COc1ncnc2c1nnn2C1OC(CO)C(O)C1O (stereo not drawn)
inactive: [21] 102 % of control | [20] 104 % of control

O=C(NCCO)Nc1ccccc1F
inactive: dose: 100.0 mg/kg/injection, schedule: Q01DX009 (ip), vehicle: saline 95 % of control | [23] 95 % of control | dose: 200.0 mg/kg/injection, schedule: Q01DX009 (ip), vehicle: saline 101 % of control | [24] 95 % of control | dose: 400.0 mg/kg/injection, schedule: Q01DX009 (ip), vehicle: saline 106 % of control | [25] 93 % of control

CCSSCC(NC(=O)OC(C)(C)C)C(=O)O (stereo not drawn)
inactive: dose: 50.0 mg/kg/injection, schedule: Q04DX003 (ip), vehicle: other 97 % of control | [9] 101 % of control | [10] 94 % of control | [11] 97 % of control | [12] 97 % of control

CCOC(=O)C1=C(C)NC(=O)NC1c1ccc(N(CCCl)CCCl)cc1Cl (stereo not drawn)
inactive: dose: 25.0 mg/kg/injection, schedule: Q01DX009 (ip), vehicle: Klucel (hydroxypropylcellulose) (HPC) 102 % of control | dose: 50.0 mg/kg/injection, schedule: Q01DX009 (ip), vehicle: Klucel (hydroxypropylcellulose) (HPC) 98 % of control | [3] 111 % of control

CCCCCCCCCCCCNC(=S)NCCCCCCCCCCCC
inactive: [4] 92 % of control | [6] 92 % of control | [8] 89 % of control

Reference: PubChem BioAssay AID248 (DTP/NCI, 2004)
